Converted amounts (≈) assume the structure as drawn.
Legend:
IGPD (Rv1601) = IGPD (Rv1601) (Mycobacterium tuberculosis, UniProt P9WML9); test: IGPD stopped-assay, IC50 study; assay type: biochemical
Mtb H37Rv [1] = test: Resazurin assay (REMA) / alamarBlue MIC; assay type: cell-based; conditions: Mycobacterium tuberculosis, minimal media
[2] = test system: Mtb H37Rv in RAW 264.7 macrophages; test: Efficacy testing in Mtb infected macrophage model; assay type: cell-based, Mycobacterium tuberculosis; conditions: RAW 264.7, MOI=10, 3 days of treatment, 0-240 μM
Mtb H37Rv [3] = test system: Mtb H37Rv; design: species or system Mycobacterium tuberculosis; conditions: in vivo; for bacterial burden in lungs vs untreated control (CFU) / bacterial burden in spleen vs untreated control (CFU): 100 mg/kg
[4] = Acute oral toxicity study (OECD 425), 14 days; conditions: for serum levels of SGOT, SGPT, creatinine, and urea compared to the untreated group: all doses, day 14; for LD50: oral, single dose, mice; for body weight compared to the untreated group: single oral dose, female mice, monitored for 14 days
Experimental: Healthy CD-1 female mice with weight 34±4 grams were used. The animals were housed individually in cages and maintained in a standard laboratory environment. […] A limit dose of 2000 mg/kg body weight of compound was used involving three mice. Each mouse was treated with a single oral dose of 5, 50, 500, 2000 mg/kg body weight on Day 0. Animals were observed individually at least once during the first 30 min after dosing, periodically during the first 24 h and daily thereafter, for a total of 14 days for any clinical signs of toxicity or mortality. At the end of 14 day's observation period, the animals were anaesthetized, and their blood samples were collected through retro orbital bleeding for biochemical and histopathological studies, respectively. For biochemical analysis, blood was centrifuged at 4000 rpm at 4° C. for 10 min, serum was separated and Serum Glutamate Pyruvic Transaminase (SGPT), Serum Glutamate Oxaloacetic Transaminase (SGOT), creatinine, and, urea were estimated using a semi-automated Biochemical coralyzer. For histopathological studies, the animals were euthanized and the livers and kidneys were harvested and examined macroscopically. These organs were then preserved in 10% formalin made in PBS for histopathological examinations by standard techniques.
For this, the liver and kidney tissue samples were embedded into wax blocks. The wax blocks were subjected to microtome to generate sections, which were then stained with Hematoxylin and Eosin dyes at a commercial facility. The tissue sections were viewed in a bright field microscope at 40× magnification.

[5] = female, CD-1, mouse, in vivo, po, 2000 mg/kg, 14 days
[6] = single oral dose 5 mg/kg, 5 mice initial, 14 days
[7] = single oral dose 5 mg/kg, 5 mice, 14 days
[8] = single oral dose 50 mg/kg, 5 mice initial, 14 days
[9] = single oral dose 50 mg/kg, 5 mice, 14 days
[10] = single oral dose 500 mg/kg, 5 mice initial, 14 days
[11] = single oral dose 500 mg/kg, 5 mice, 14 days

Chain of IGPD (Rv1601) (P9WML9 whole entry, looked up): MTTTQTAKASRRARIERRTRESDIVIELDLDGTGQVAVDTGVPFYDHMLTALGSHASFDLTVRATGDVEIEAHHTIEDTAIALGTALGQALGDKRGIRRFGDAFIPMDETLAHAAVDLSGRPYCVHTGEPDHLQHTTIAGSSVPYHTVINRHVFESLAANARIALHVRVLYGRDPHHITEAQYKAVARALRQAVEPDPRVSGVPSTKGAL

| SMILES | IC50 (IGPD (Rv1601)) [µM] | MIC99 (Mtb H37Rv [1]) [µM] | bacterial load in Mtb infected macrophages (CFU) [2] | bacterial burden in lungs vs untreated control (CFU) (Mtb H37Rv [3]; po) | bacterial burden in spleen vs untreated control (CFU) (Mtb H37Rv [3]; po) | serum levels of SGOT, SGPT, creatinine, and urea compared to the untreated group [4] | kidney histology (H&E) ([4]; mouse, in vivo) | liver histology (H&E), FIG. 11 ([4]; mouse, in vivo) | LD50 [4] | Mice number final [4, 6] | Total Deaths (D) [4, 7] | Mice number final [4, 8] | Total Deaths (D) [4, 9] | Mice number final [4, 10] | Total Deaths (D) [4, 11] | body weight compared to the untreated group [4] | bacterial burden with supplementation of histidine (Mtb H37Rv [3]) | other results |
| --- | --- | --- | --- | --- | --- | --- | --- | --- | --- | --- | --- | --- | --- | --- | --- | --- | --- | --- |
| CC(N)c1ncnn1C (centres unmarked) [SF1, 1-(2-methyl-1,2,4-triazol-3-yl)ethanamine] | 33.5 | 31.2 (≈ 3.94 µg/mL) | approximately a thousand-fold decline | no reduction in the bacterial burden | no reduction in the bacterial burden |  |  |  |  |  |  |  |  |  |  |  |  |  |
| CC(C)C(N)c1ncnn1C (centres unmarked) [SF2, 2-methyl-1-(2-methyl-1,2,4-triazol-3-yl)propan-1-amine] | 44.1 | 125 (≈ 19.3 µg/mL) | hundred-fold decline | no reduction in the bacterial burden | no reduction in the bacterial burden | no significant changes | no pathological changes | no pathological changes | greater than 2000 mg/kg body weight | 5 | 0 | 5 | 0 | 5 | 0 | increased for all doses while a slight dip in weight for 5 mg/kg body weight on 7th day was observed | restored the bacterial burden to the untreated levels | Mice number final [4, 5]: 5; Total Deaths (D) [4, 5]: 0; clinical signs in surviving mice ([4]; mouse, in vivo): no clinical signs of adverse effects/toxicity; bacterial load in lungs vs untreated control (CFU) (Mtb H37Rv [3]; po, 200 mg/kg): significant decrease in the bacterial load; reduction in the bacterial load in spleen vs untreated control (CFU) (Mtb H37Rv [3]; po, 200 mg/kg): not found to be statistically significant |
| NCCSc1ncn[nH]1 [SF3, 2-(1H-1,2,4-triazol-5-ylsulfanyl)ethanamine] | 76.9 | 500 (≈ 72.1 µg/mL) | did not reduce the bacterial load | significant lowering of the bacterial burden | significant lowering of the bacterial burden | no significant changes | no pathological changes | no pathological changes | below 5000 mg/kg body weight | 5 | 0 | 5 | 0 | 5 | 0 | decreased for 5, 500, and 2000 mg/kg body weight and increased for 5000 mg/kg body weight | restored the bacterial burden to the untreated levels | clinical signs in surviving mice ([4]; oral 5, 50, 500 and 2000 mg/kg body weight, 14 days): no clinical signs of adverse effects/toxicity; clinical signs ([4]; single dose of 5000 mg/kg, after 12-24 h): slowness and weight decline; Mice number final ([4]; single oral dose 2000 mg/kg, 5 mice initial, 14 days): 3; Total Deaths (D) ([4]; single oral dose 2000 mg/kg, 5 mice, 14 days): 2; Mice number final ([4]; single oral dose 5000 mg/kg, 5 mice initial, 14 days): 2; Total Deaths (D) ([4]; single oral dose 5000 mg/kg, 5 mice, 14 days): 3 |

From US20250388554A1, “ANTIBACTERIAL COMPOUNDS, METHOD OF PRODUCTION AND USE THEREOF” (priority 2024, published 2025)
